Measured values published in patent publication US20250051350A1, “Dihydroartemisinin derivatives and the treatment of fibrotic diseases” (GreenStone Biosciences, Inc., priority 2023, published 2025).
Values after ≈ are worked out from the molar mass of the structure shown. Where two headings read alike, the source gives them in different places.

What was measured:
[1] = Intravenous and oral pharmacokinetics in mice; assay type: in vivo; settings: male C57BL/6J mice
Method: The intravenous (IV) and oral (PO) pharmacokinetics of the PT compounds were measured in 6-10 week-old male C57BL/6J mice, using three mice/group. The test compounds were formulated in an appropriate water-based vehicle to give a clear solution for IV administration, or a clear solution or uniform suspension for PO administration. Animals were dosed within 4 hours of the preparation of the formulations; with the dose volume being determined by the animal's body weight measured on the morning of the dosing day. Blood samples (about 25 μL per time point) were taken at 5 and 15 minutes and 1, 3, and 5 hours after dosing, into pre-chilled EDTA-K2 tubes and kept on wet ice until centrifugation. The tubes were centrifuged at 3200×g at about 4° C. for 10 minutes, and the plasma analyzed by LC-MS/MS.

[2] = tested on: Induced pluripotent stem cell-derived cardiac fibroblasts (ACTA2-GFP); assay: Antifibrotic effects in TGF-β-activated iPSC-derived cardiac fibroblasts (ACTA2-GFP fluorescence); assay type: cell-based; settings: for antifibrotic efficacy in this model: TGF-β-activated iPSC-derived cardiac fibroblasts
Source text: Induced pluripotent stem cell-derived cardiac fibroblasts were constructed containing a fusion of the alpha-smooth muscle actin to the green fluorescent protein (ACTA2-GFP) construct. ACTA2 is a myofibroblast marker, such that the fibroblasts fluoresce with an intensity dependent on the extent of fibrosis.

in vitro = in vitro ADME; settings: for fraction unbound: plasma
Method: Plasma protein binding assays were conducted in triplicate for compounds PT-2, PT-14, PT-28, and PT-30, with artesunate, DHA, and warfarin as comparators.

[3] = tested on: MD2 signaling pathway (HEK Blue-TLR4 cells); assay: HEK Blue-TLR4 assay (MD2 pathway); assay type: cell-based; settings: 1 h preincubation, 10 ng/mL lipopolysaccharide, read after 20 hours at 655 nm
Method: HEK Blue-TLR4 cells were plated in detection media, preincubated with vehicle or PT-2, PT-14, or PT-30 dissolved in vehicle (with artesunate, DHA, and artemisinin comparators) for 1 h, then co-stimulated with 10 ng/mL lipopolysaccharide. Reporter activity was read after 20 hours at 655 nm in a spectrophotometer. The PT compounds were active in this assay, showing that they inhibit the MD2 signaling pathway.

[4] = tested on: primary pulmonary fibroblasts; assay: Antifibrotic efficacy in primary pulmonary fibroblasts; assay type: cell-based
[5] = tested on: CCl4 injury mouse liver model; assay: CCl4 injury mouse liver model; assay type: in vivo; settings: oral administration
[6] = tested on: bleomycin injury mouse skin model; assay: Bleomycin injury mouse skin model; assay type: in vivo; settings: topical administration (50 μL, 100 μM in 0.1% DMSO/PBS)
Solubility of PT-30 = assay type: physicochemical
Method: (§1) PT-30, DHA 5-oxo-2,6-diazaspiro[3.4]octane-2-carboxylate, (3R,5aS,6R,8aS,9R,12S,12aR)-decahydro-3,6,9-trimethyl-3,12-epoxy-12H-pyrano[4,3-j]-1,2-benzodioxepin-10-yl 5-oxo-2,6-diazaspiro[3.4]octane-2-carboxylate, was a white crystalline solid as prepared. […] PT-30 had low solubility (<0.1 mg/mL) in aqueous acidic conditions and in simulated gastric fluid, and a solubility of about 0.7 mg/mL in fasted-state and fed-state simulated intestinal fluids.

[7] = Solid-state stability of PT-30; assay type: physicochemical
Method: as §1

Hygroscopicity of PT-30 = assay type: physicochemical; settings: from 40% to 95% RH
Method: as §1

[8] = tested on: bleomycin-induced pulmonary fibrosis model; settings: bleomycin-induced pulmonary fibrosis model in rats; cited from earlier work

Structure (SMILES)	IV AUC0-last ([1]; IV, plasma) [ng·h/mL]	IV Clearance ([1]; IV, plasma) [mL/min/kg]	IV T1/2 ([1]; IV, plasma) [min]	IV VD,ss ([1]; IV, plasma) [L/kg]	PO Bioavailability ([1]; PO) [%]	PO AUC0-last ([1]; PO, plasma) [ng·h/mL]	PO T1/2 ([1]; PO, plasma) [min]	recovery (in vitro; human) [%]	fraction unbound (in vitro; human)	recovery (in vitro; mouse) [%]	fraction unbound (in vitro; mouse)	further results
CC1CCC2C(C)C(OC(=O)N3CC(C)(N)C3)OC3OC4(C)CCC1C32OO4 (centres unmarked) [PT-24, DHA 3-amino-3-methylazetidine-1-carboxylate]	2200	77	15.6	2.2	123	24300	67.2					
CC1CCC2C(C)C(OC(=O)N3CC(C)(C(=O)O)C3)OC3OC4(C)CCC1C32OO4 (centres unmarked) [PT-25, DHA 3-carboxy-3-methylazetidine-1-carboxylate]	2200	74	16.2	1.3	17	3700	113					
CC1CCC2C(C)C(OC(=O)N3CC(C)(C(N)=O)C3)OC3OC4(C)CCC1C32OO4 (centres unmarked) [PT-27, DHA 3-methyl-3-carbamoylazetidine-1-carboxylate]	3300	47	15	1.0	41	14400	78					
CNC(=O)C1(C)CN(C(=O)O[C@H]2O[C@@H]3O[C@@]4(C)CC[C@H]5[C@H](C)CC[C@@H]([C@H]2C)[C@@]35OO4)C1 [PT-28, DHA 3-methyl-3-(methylcarbamoyl)azetidine-1-carboxylate]	4200	38	14.4	0.8	112	48800	28.8					antifibrotic efficacy in this model [2]: demonstrated antifibrotic efficacy
CC1CCC2C(C)C(OC(=O)N3CC(C)(C(=O)N(C)C)C3)OC3OC4(C)CCC1C32OO4 (centres unmarked) [PT-29, DHA 3-methyl-3-(dimethylcarbamoyl)azetidine-1-carboxylate]	2000	82	7.8	0.9	34	6800	64.8					
C[C@@H]1CC[C@H]2[C@@H](C)C(OC(=O)N3CC4(CCNC4=O)C3)O[C@H]3O[C@@]4(C)CC[C@@H]1[C@]32OO4 (stereo partly drawn) [PT-30, (3R,5aS,6R,8aS,9R,12S,12aR)-decahydro-3,6,9-trimethyl-3,12-epoxy-12H-pyrano[4,3-j]-1,2-benzodioxepin-10-yl 5-oxo-2,6-diazaspiro[3.4]octane-2-carboxylate]								84.9	0.455	87.6	0.079	antifibrotic efficacy in this model [2]: demonstrated antifibrotic efficacy; bioavailability ([1]; mouse, plasma, PO): 73%; clearance ([1]; mouse, IV, plasma): 30 mL/min/kg; AUC(0-t) ([1]; mouse, IV, plasma, read-out: IV AUC0-last): 5300 ng·h/mL; half-life ([1]; mouse, IV, plasma, read-out: IV T1/2 (converted)): 13.2 min; Vd ([1]; mouse, IV, plasma, read-out: IV VD,ss): 0.6 L/kg; AUC(0-t) ([1]; mouse, PO, plasma, read-out: PO AUC0-last): 40900 ng·h/mL; half-life ([1]; mouse, PO, plasma, read-out: PO T1/2 (converted)): 20.4 min; activity in HEK Blue-TLR4 reporter assay (inhibition of MD2 signaling pathway) [3]: active; antifibrotic efficacy, effect on acta2, colla1, and CTGF [4]: demonstrated antifibrotic efficacy; antifibrotic efficacy [5]: demonstrated antifibrotic efficacy; antifibrotic efficacy [6]: demonstrated antifibrotic efficacy; solubility (Solubility of PT-30; aqueous acidic conditions, aqueous buffer): < 100 µg/mL; solubility in organic solvents (Solubility of PT-30; common organic solvents, greatest in methanol and tetrahydrofuran): soluble in common organic solvents; solubility (Solubility of PT-30; fasted-state simulated intestinal fluid, fassif): ~700 µg/mL (≈ 1600 µM); solubility (Solubility of PT-30; fed-state simulated intestinal fluid, fessif): ~700 µg/mL (≈ 1600 µM); solubility (Solubility of PT-30; simulated gastric fluid): < 100 µg/mL; chemical and crystal form stability ([7]; 25° C./60% RH for 1 week): chemically stable without crystal form change; chemical and crystal form stability ([7]; 40° C./75% RH for 1 week): chemically stable without crystal form change; hygroscopicity, water uptake (Hygroscopicity of PT-30): 0.5%
C[C@H]1[C@H](OC(=O)CCC(=O)O)O[C@@H]2O[C@@]3(C)CC[C@H]4[C@H](C)CC[C@@H]1[C@@]24OO3 [artesunate]								98	0.233	53.4	0.278	IC50 ([2]; Cardiac fibroblast, activated with TGF-β, simultaneous treatment, 48 hours, ACTA2-GFP fluorescence, read-out: IC50, reduction in fluorescence): 2800 nM; reduction in fluorescence (fibrotic marker ACTA2-GFP) ([2]; activated with TGF-β, various concentrations, 48 hours): dose-dependent reduction in fluorescence; antifibrotic activity [8]: active as an antifibrotic agent
CC(=O)CC(c1ccccc1)c1c(O)c2ccccc2oc1=O (centres unmarked) [warfarin]								91.1	0.003	94.5	0.007	
